These results are taken from ChEMBL document CHEMBL1143118, “6-Acetyl-7,7-dimethyl-5,6,7,8-tetrahydropterin is an activator of nitric oxide synthases” (Bioorg Med Chem Lett, 2008).

For assay [1], the system named is Aortic ring. Nature of the assay: Relaxation of phenyphrine-induced constriction in rat aortic rings. As to conditions: Aorta. It is filed as functional, tissue-based.
Assay [2] addresses Nitric oxide synthase 1 (Homo sapiens) (UniProt P29475). Kind of assay: Activity of tetrahydrobiopterin free nNOS assessed as increase in NO in presence of NADPH and arginine at 1 to 200 uM.
Assay [3] relates to Aortic ring. Kind of assay: Relaxation of phenyphrine-induced constriction in rat aortic rings depleted with tetrahydrobiopterin. As to conditions: Aorta. It counts as functional, tissue-based.
Assay [4] concerns the target Nitric oxide synthase 1 (Homo sapiens) (UniProt P29475). Nature of the assay: Activity of tetrahydrobiopterin free nNOS expressed in Escherichia coli at 1 to 100 uM.

Activity calls are given as the source filed them. No cut-off for these calls is given here.

Chain of Nitric oxide synthase 1 (Homo sapiens) (P29475 whole entry): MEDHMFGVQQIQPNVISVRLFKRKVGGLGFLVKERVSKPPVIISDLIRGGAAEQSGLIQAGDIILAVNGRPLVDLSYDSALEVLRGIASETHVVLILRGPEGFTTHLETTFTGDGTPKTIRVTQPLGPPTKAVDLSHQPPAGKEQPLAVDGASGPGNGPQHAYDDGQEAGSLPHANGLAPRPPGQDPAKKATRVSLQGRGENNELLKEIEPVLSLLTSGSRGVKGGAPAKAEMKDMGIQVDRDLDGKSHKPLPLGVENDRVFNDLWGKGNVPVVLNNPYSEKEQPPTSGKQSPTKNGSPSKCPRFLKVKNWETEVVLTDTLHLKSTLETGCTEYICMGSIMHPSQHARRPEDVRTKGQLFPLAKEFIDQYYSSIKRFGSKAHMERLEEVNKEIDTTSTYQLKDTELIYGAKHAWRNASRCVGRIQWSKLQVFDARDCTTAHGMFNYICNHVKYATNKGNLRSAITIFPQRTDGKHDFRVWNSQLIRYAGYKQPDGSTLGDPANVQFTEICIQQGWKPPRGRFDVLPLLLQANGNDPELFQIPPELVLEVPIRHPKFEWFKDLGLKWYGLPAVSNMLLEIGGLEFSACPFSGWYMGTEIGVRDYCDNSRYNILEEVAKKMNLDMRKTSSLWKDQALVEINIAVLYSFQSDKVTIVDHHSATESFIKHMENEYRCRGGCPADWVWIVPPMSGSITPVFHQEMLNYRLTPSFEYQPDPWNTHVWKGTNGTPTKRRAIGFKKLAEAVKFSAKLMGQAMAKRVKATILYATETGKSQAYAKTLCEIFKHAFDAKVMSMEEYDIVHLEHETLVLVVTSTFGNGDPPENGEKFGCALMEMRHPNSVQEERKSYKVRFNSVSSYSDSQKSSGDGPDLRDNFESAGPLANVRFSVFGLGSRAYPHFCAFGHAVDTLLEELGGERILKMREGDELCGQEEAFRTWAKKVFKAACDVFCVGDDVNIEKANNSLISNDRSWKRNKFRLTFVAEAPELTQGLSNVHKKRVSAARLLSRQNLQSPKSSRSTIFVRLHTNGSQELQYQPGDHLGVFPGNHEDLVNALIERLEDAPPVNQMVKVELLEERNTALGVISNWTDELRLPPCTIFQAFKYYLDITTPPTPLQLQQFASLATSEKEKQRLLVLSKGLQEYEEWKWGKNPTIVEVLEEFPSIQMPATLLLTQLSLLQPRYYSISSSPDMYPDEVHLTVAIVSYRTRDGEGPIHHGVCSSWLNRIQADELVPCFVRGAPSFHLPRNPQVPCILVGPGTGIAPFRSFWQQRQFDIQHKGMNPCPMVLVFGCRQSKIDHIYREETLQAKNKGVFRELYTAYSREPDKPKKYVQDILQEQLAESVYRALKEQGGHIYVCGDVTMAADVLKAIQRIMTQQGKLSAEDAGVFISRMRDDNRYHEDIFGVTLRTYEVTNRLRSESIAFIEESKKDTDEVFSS

On to `C[C@H](O)[C@H](O)[C@H]1CNc2nc(N)[nH]c(=O)c2N1`, for which, in the assay with Aortic ring [1], the result was inactive. As to `CC(=O)C1Nc2c(nc(N)[nH]c2=O)NC1(C)C` (centres undefined), the result in assay [2] was Active. As to `CC(=O)C1=Nc2c(nc(N)[nH]c2=O)NC1(C)C`, in the assay on Aortic ring [3], the result was Active. Further, in assay [4], the result was inactive.
